Results taken from patent US20260000710A1, “Novel Treatments for Cardiovascular Related Disease” (priority 2022, published 2026).

Key:
[1] = system: AIM+ and AIM− CD4+ T cells from peptide-expanded PBMCs; test: TCRβ CDR3 sequencing (immunoSEQ) of sorted AIM+ and AIM− CD4+ T cells; type: cell-based, human; conditions: for Log10 Odds Ratio: AIM+ vs AIM−;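 for all read-outs here: genomic DNA from sorted cells as template, amplification bias-controlled two-step multiplex PCR, APOB6 pool at 10 µg/ml per peptide, CD40 blocking antibody added before restimulation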
Experimental: To examine the clonotypic identities of autoreactive CD4^+ T cells, the hypervariable TCRβ DR3 region was sequenced using a DNA-based sequencing technique^42 (Adaptive Biotechnologies), which have been used to profile clonal populations of other self-antigen specific T cells^43. PBMCs from six HLA-typed donors (demographics and HLA-II alleles in Tables 5, 6) were expanded (14-days) and restimulated (24 h) with the APOB6 pool. To isolate viable responder and non-responder CD4^+ T cells from the same pool of stimulated PBMCs (schematic in FIG. 15A, gating strategy in FIG. 151B), the inventors used the AIM assay protocol (FIGS. 2A to 2D).
As a second control, unexpanded PBMCs (day 0 samples), sorted into naïve, central memory (TCM) and effector memory (TEM) CD4^+ T cells, were used (gating strategy in FIG. 15C). This allowed tracing the APOB6-specific AIM^+ T cell clones in naïve and memory T cell lineages. Genomic DNA, isolated from sorted AIM^− and AIM^+ Day 14 samples and naïve, TCM and TEM Day 0 samples from six donors, was used as the starting material for TCRVβ sequencing (schematic in FIG. 15A) using an optimized two-step, amplification bias-controlled multiplex-PCR-based approach^42,44 (immunoSEQ Human TCRB Assay, Adaptive Biotechnologies).
For isolation of APOB epitope-specific CD4^+ T cells, PBMCs were expanded with the APOB6pool (10 μg/ml per peptide). On Day 14, cultured cells were washed and re-stimulated with APOB6 (10 μg/ml) for 24 h (AIM assay protocol). 1 μg/ml of CD40 blocking antibody was added 15 min before stimulation. At the end of the stimulation period, cells were washed with FACS buffer (PBS w/o Ca/Mg, 2% FCS). Day 14 (APOB6 expanded and restimulated) and Day 0 (ex vivo samples with no in vitro stimulation) PBMC samples from six donors were resuspended in a staining master mix containing anti-human Fc-Block (Biolegend), fixable viability dye and antibodies against T cell and non-T cell (Dump) surface markers, activation markers and memory markers (antibody details in Table 4). Viability dye was used at 1:1000 dilution, antibodies were used at a final dilution of 1:100 (activation markers) and 1:200 (other extracellular markers). […] Gates were set based on unstimulated and PHA-L stimulated negative and positive controls, respectively. Antigen-specific AIM^+ and non-specific control AIM^− CD4^+ T cells from Day 14 samples and naïve (CD45RA^+CCR7^+), central memory (CD45RA^−CCR7^+, TCM) and effector memory (CD45RA^−CCR7^−, TEM) CD4^+ T cells from Day 0 PBMCs were sorted into HEPES-containing buffer (PBS with 2% FBS and 0.025 M HEPES) using BD FACSAria flow cytometry sorters. Acquired data was analyzed with FlowJo software.
Genomic DNA was extracted from sorted cells using QIAamp DNA Micro Kit (QIAGEN) and sent to Adaptive Biotechnologies for survey-level TCRβ sequencing (depth ˜60,000 reads) using their established immunoSEQ platform^7. Briefly, highly variable CDR3 regions on somatically rearranged human TCRβ chains were amplified with a two-step multiplex PCR approach using optimized set of primers that target the VDJ region spanning each unique CDR3B. A synthetic repertoire containing all possible V/J templates is used as a built-in control to quantify and correct PCR amplification biases. Processing of raw Illumina sequence reads, filtering, demultiplexing, clustering and mapping of CDR3 sequences and annotation of VDJ genes using IMGT database sequences were performed at Adaptive Biotechnologies and made available for download and analysis.

[2] = system: purified MHC molecules (28 common HLA DP, DQ and DR alleles); test: HLA class II competition binding assay (inhibition of radiolabeled ligand binding); design: species or system human; conditions: alleles bound at <1000 nM threshold
Experimental: Peptides predicted to bind most (≥75%) of the alleles, were experimentally verified in HLA-II binding assays^31. For each peptide, the number of alleles that bound at a <1000 nM threshold level was tabulated. Top 20 promiscuous binders (bind >50% of reference alleles) were selected for further study (FIG. 9A, Table 2).
Next, the capacity of these peptides to bind 28 common HLA alleles (27 from the reference set plus DPB1*03:01) was determined experimentally using classical competition assays based on the inhibition of binding of high affinity radiolabeled ligands to purified MHC molecules^3. Under the conditions utilized, where [radiolabeled peptide] is <[MHC], and [MHC]<[inhibitor peptide], the measured IC50 values, defined as the concentrations of inhibitor peptide that inhibits the binding of the radiolabeled ligand by 50%, are reasonable estimates of true Kd values.

[3] = target: 28 common HLA alleles (27 from the reference set plus DPB1*03:01), purified MHC molecules; test: competition assay, inhibition of radiolabeled ligand binding to purified HLA class II; bound = IC50 <1000 nM
[4] = Donor 3, PBMCs expanded 14 days and restimulated 24 h with APOB6
[5] = Donor 5, PBMCs expanded 14 days and restimulated 24 h with APOB6
[6] = Donor 2, PBMCs expanded 14 days and restimulated 24 h with APOB6
[7] = Donor 1, PBMCs expanded 14 days and restimulated 24 h with APOB6
[8] = Donor 6, PBMCs expanded 14 days and restimulated 24 h with APOB6
[9] = Donor 4, PBMCs expanded 14 days and restimulated 24 h with APOB6

CSARWYNEQFF: TCRβ CDR3 clone, TCRBV20-01+TCRBJ02-01, Donor 3
Log10 Odds Ratio ([1]; Donor 3): 1.82 | No. of clone-specific productive templates, AIM+ CD4+ T (Total 16700) [1, 4]: 349 | No. of clone-specific productive templates, AIM− CD4+ T (Total 21770) [1, 4]: 7

RGLKLATALSLSNKF [Peptide 15]
No. of HLA-II alleles bound [2]: 23

CASSQTALYSGNTIYF: TCRβ CDR3 clone, TCRBV19-01+TCRBJ01-03, Donor 5
Log10 Odds Ratio ([1]; Donor 5): 12.08 | No. of clone-specific productive templates, AIM+ CD4+ T (Total 31354) [1, 5]: 777 | No. of clone-specific productive templates, AIM− CD4+ T (Total 48987) [1, 5]: 0

QIHQYIMALREEYFD [Peptide 19]
No. of HLA-II alleles bound [2]: 25

CAWSVGGPGANSPLHF: TCRβ CDR3 clone, TCRBV30-01+TCRBJ01-06, Donor 2
Log10 Odds Ratio ([1]; Donor 2): 1.16 | No. of clone-specific productive templates, AIM+ CD4+ T (Total 18591) [1, 6]: 369 | No. of clone-specific productive templates, AIM− CD4+ T (Total 7206) [1, 6]: 10

CASSFVDSPESYEQYF: TCRβ CDR3 clone, TCRBV12-X+TCRBJ02-07, Donor 1
Log10 Odds Ratio ([1]; Donor 1): 2.01 | No. of clone-specific productive templates, AIM+ CD4+ T (Total 21697) [1, 7]: 486 | No. of clone-specific productive templates, AIM− CD4+ T (Total 49956) [1, 7]: 11

CASSIPQGSGSPLHF: TCRβ CDR3 clone, TCRBV05-06+TCRBJ01-06, Donor 6; top-ranked APOB6-specific rearrangement
Log10 Odds Ratio ([1]; Donor 6): 2.41 | No. of clone-specific productive templates, AIM+ CD4+ T (Total 34927) [1, 8]: 9283 | No. of clone-specific productive templates, AIM− CD4+ T (Total 45364) [1, 8]: 63

LIINWLQEALSSASL [Peptide 11]
No. of HLA-II alleles bound [2]: 17

CASSQTGQGYNEQFF: TCRβ CDR3 clone, TCRBV23-01+TCRBJ02-01, Donor 6
Log10 Odds Ratio ([1]; Donor 6): 1.49 | No. of clone-specific productive templates, AIM+ CD4+ T (Total 34927) [1, 8]: 308 | No. of clone-specific productive templates, AIM− CD4+ T (Total 45364) [1, 8]: 13

CASSEMGLNTDTQYF: TCRβ CDR3 clone, TCRBV06-01+TCRBJ02-03, Donor 4
Log10 Odds Ratio ([1]; Donor 4): 0.45 | No. of clone-specific productive templates, AIM+ CD4+ T (Total 25796) [1, 9]: 1601 | No. of clone-specific productive templates, AIM− CD4+ T (Total 25928) [1, 9]: 601

CASRKTGSLYGYTF: TCRβ CDR3 clone, TCRBV27-01+TCRBJ01-02, Donor 5
Log10 Odds Ratio ([1]; Donor 5): 11.80 | No. of clone-specific productive templates, AIM+ CD4+ T (Total 31354) [1, 5]: 411 | No. of clone-specific productive templates, AIM− CD4+ T (Total 48987) [1, 5]: 0

CASSLPRDRDYGYTF: TCRβ CDR3 clone, TCRBV06-02+TCRBJ01-02, Donor 3
Log10 Odds Ratio ([1]; Donor 3): 2.55 | No. of clone-specific productive templates, AIM+ CD4+ T (Total 16700) [1, 4]: 269 | No. of clone-specific productive templates, AIM− CD4+ T (Total 21770) [1, 4]: 1

VEFVTNMGIIIPDFA [Peptide 4]
No. of HLA-II alleles bound [2]: 18

CASSFTYDEQFF: TCRβ CDR3 clone, TCRBV07-09+TCRBJ02-01, Donor 5
Log10 Odds Ratio ([1]; Donor 5): 1.66 | No. of clone-specific productive templates, AIM+ CD4+ T (Total 31354) [1, 5]: 457 | No. of clone-specific productive templates, AIM− CD4+ T (Total 48987) [1, 5]: 16

CASSLTRIPEQYF: TCRβ CDR3 clone, TCRBV28-01+TCRBJ02-07, Donor 1
Log10 Odds Ratio ([1]; Donor 1): 0.90 | No. of clone-specific productive templates, AIM+ CD4+ T (Total 21697) [1, 7]: 459 | No. of clone-specific productive templates, AIM− CD4+ T (Total 49956) [1, 7]: 136

HVKHFVINLIGDFEV [Peptide 10]
No. of HLA-II alleles bound [2]: 21

CASSPADREETQYF: TCRβ CDR3 clone, TCRBV18-01+TCRBJ02-05, Donor 3
Log10 Odds Ratio ([1]; Donor 3): 0.99 | No. of clone-specific productive templates, AIM+ CD4+ T (Total 16700) [1, 4]: 410 | No. of clone-specific productive templates, AIM− CD4+ T (Total 21770) [1, 4]: 56

CASSLRTGIINEQFF: TCRβ CDR3 clone, TCRBV05-01+TCRBJ02-01, Donor 5
Log10 Odds Ratio ([1]; Donor 5): 11.77 | No. of clone-specific productive templates, AIM+ CD4+ T (Total 31354) [1, 5]: 383 | No. of clone-specific productive templates, AIM− CD4+ T (Total 48987) [1, 5]: 0

DKRLAAYLMLMRSPS [Peptide 1]
No. of HLA-II alleles bound [2]: 23

CASSQEVGGDHGYTF: TCRβ CDR3 clone, TCRBV04-03+TCRBJ01-02, Donor 3
Log10 Odds Ratio ([1]; Donor 3): 2.41 | No. of clone-specific productive templates, AIM+ CD4+ T (Total 16700) [1, 4]: 759 | No. of clone-specific productive templates, AIM− CD4+ T (Total 21770) [1, 4]: 4

B1: APOB peptide 1 (…) (peptide)
peptide: DKRLAAYLMLMRSPS
No. of HLA-II alleles bound [3]: 23 alleles

B2: APOB peptide 16 (…) (peptide)
peptide: YKKLRTSSFALNLPT
No. of HLA-II alleles bound [3]: 21 alleles

B3: APOB peptide 12 (…) (peptide)
peptide: LEVLNFDFQANAQLS
No. of HLA-II alleles bound [3]: 18 alleles

B4: APOB peptide 10 (…) (peptide)
peptide: HVKHFVINLIGDFEV
No. of HLA-II alleles bound [3]: 21 alleles

B5: APOB peptide 14 (…) (peptide)
peptide: GKIDFLNNYALFLSP
No. of HLA-II alleles bound [3]: 23 alleles

B6: APOB peptide 11 (…) (peptide)
peptide: LIINWLQEALSSASL
No. of HLA-II alleles bound [3]: 17 alleles

B7: APOB peptide 13 (…) (peptide)
peptide: SLFFSAQPFEITAST
No. of HLA-II alleles bound [3]: 23 alleles
